Test results taken from ChEMBL document CHEMBL1201862, “PubChem BioAssay data set” (2004).
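How tested: cells in 96-well plates exposed to compound for 48 hours at five concentrations. GI50: concentration for 50% inhibition of growth.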 Active and inactive are the calls of the source. Cut-off read from the data, not from the text of the source: active = GI50 up to about 1.1 µM and inactive = higher.

What was measured:
Assay in all cases: NCI-60 cell line screen, 48 h
A549 = tested on: A549
BT-549 = tested on: BT-549
CCRF-CEM = tested on: CCRF-CEM
DU-145 = tested on: DU-145
HCT-116 = tested on: HCT-116
HOP-62 = tested on: HOP-62
IGROV-1 = tested on: IGROV-1
MCF7 = tested on: MCF7
NCI-H226 = tested on: NCI-H226
NCI-H23 = tested on: NCI-H23
OVCAR-3 = tested on: OVCAR-3
OVCAR-5 = tested on: OVCAR-5
OVCAR-8 = tested on: OVCAR-8
RPMI-8226 = tested on: RPMI-8226
SF-539 = tested on: SF-539
SK-MEL-28 = tested on: SK-MEL-28
SN12C = tested on: SN12C
SR = tested on: SR
U-251 = tested on: U-251
UACC-257 = tested on: UACC-257

Measured: GI50

O=C(O)c1cnccc1-c1cc(=O)[nH]n1-c1ccccc1
inactive: A549 48.9 µM | BT-549 > 80.5 µM | CCRF-CEM 34.4 µM | DU-145 > 53.1 µM | HCT-116 51.8 µM | HOP-62 51.1 µM | IGROV-1 > 21.3 µM | MCF7 43.2 µM | NCI-H226 > 100 µM | NCI-H23 97.7 µM | OVCAR-3 > 43.9 µM | OVCAR-5 > 63.4 µM | OVCAR-8 52.8 µM | RPMI-8226 48 µM | SF-539 35.6 µM | SK-MEL-28 > 43.4 µM | SN12C > 87.7 µM | SR 11.3 µM | U-251 > 100 µM | UACC-257 66.1 µM

O=c1c2cc3c(=O)n4c(cc(-c5ccccc5)c5cc(Cl)ccc54)nc3cc2nc2cc(-c3ccccc3)c3cc(Cl)ccc3n12
inactive: A549 > 100 µM | BT-549 > 100 µM | CCRF-CEM > 100 µM | DU-145 > 100 µM | HCT-116 > 100 µM | HOP-62 34.9 µM | IGROV-1 > 100 µM | MCF7 > 100 µM | NCI-H226 > 100 µM | NCI-H23 > 100 µM | OVCAR-3 > 100 µM | OVCAR-5 > 100 µM | OVCAR-8 > 100 µM | RPMI-8226 > 100 µM | SF-539 > 100 µM | SK-MEL-28 > 100 µM | SN12C > 100 µM | SR > 100 µM | U-251 52.4 µM | UACC-257 > 100 µM

COc1ccc(C(=O)N2CCN(c3ccc4[nH]c(=O)oc4c3)CC2)cc1
inactive: A549 > 100 µM | BT-549 > 100 µM | CCRF-CEM > 100 µM | DU-145 > 100 µM | HCT-116 > 100 µM | HOP-62 > 100 µM | IGROV-1 99.1 µM | MCF7 > 100 µM | NCI-H226 > 100 µM | NCI-H23 > 100 µM | OVCAR-3 > 100 µM | OVCAR-5 > 100 µM | OVCAR-8 > 100 µM | RPMI-8226 > 100 µM | SF-539 > 100 µM | SK-MEL-28 > 100 µM | SN12C > 100 µM | SR 92.5 µM | U-251 > 100 µM | UACC-257 > 100 µM

C[N+](C)(CCNC(=O)c1cccc2cc3ccccc3nc12)Cc1ccc([N+](=O)[O-])cc1
inactive: A549 > 100 µM | BT-549 > 100 µM | CCRF-CEM > 100 µM | DU-145 > 100 µM | HCT-116 > 100 µM | HOP-62 > 100 µM | IGROV-1 > 100 µM | MCF7 > 100 µM | NCI-H226 > 100 µM | NCI-H23 > 100 µM | OVCAR-3 > 100 µM | OVCAR-5 > 100 µM | OVCAR-8 > 100 µM | RPMI-8226 > 100 µM | SF-539 > 100 µM | SK-MEL-28 > 100 µM | SN12C > 100 µM | SR > 100 µM | U-251 > 100 µM | UACC-257 > 100 µM
